In ChEMBL document CHEMBL5518227, “Discovery of JNJ-1802, a First-in-Class Pan-Serotype Dengue Virus NS4B Inhibitor” (J Med Chem, 2024):

Tests used:
[1] = tested on: mouse P-gp; experiment: Efflux ratio of permeability from basolateral to apical side over apical to basolateral side in pig LLC-PK1 cells transfected with mouse P-gp at 1 uM measured upto 120 mins; format: ADME, cell-based, Sus scrofa
[2] = Mutagenicity in Salmonella typhimurium TA7002 in presence or absence of S9 fraction pretreated for 90 mins measured after 48 hrs in dark by AMES test; format: toxicity; conditions: salmonella enterica subsp. enterica serovar typhimurium, s9, 49.5 h; time 2970 min
[3] = Metabolic stability in human hepatocytes assessed as intrinsic clearance measured per million cells incubated upto 120 mins by LC-MS/MS analysis; format: ADME, cell-based, Hepatocyte; conditions: read-out: CLH
[4] = Metabolic stability in rat hepatocytes assessed as intrinsic clearance measured per million cells incubated upto 120 mins by LC-MS/MS analysis; format: ADME, cell-based, Hepatocyte; conditions: read-out: CLH
[5] = Volume of distribution at steady state in 8 hrs fasted cynomolgus monkey […] at 1 mg/kg, iv measured upto 24 hrs by LC-MS/MS analysis; format: ADME, organism-based, Macaca fascicularis; conditions: in vivo, read-out: Vdss
[6] = Elimination half life in CD-1 mouse at 2.5 mg/kg, iv measured upto 24 hrs by LC-MS/MS analysis; format: ADME, organism-based; conditions: in vivo, read-out: beta t1/2 (converted)
[7] = Clearance in 8 hrs fasted cynomolgus monkey assessed as liver blood flow at 1 mg/kg, iv measured upto 24 hrs by LC-MS/MS analysis; format: ADME, organism-based, Macaca fascicularis; conditions: in vivo
[8] = molecular target: T1, Cytochrome P450 2C8 (Homo sapiens, UniProt P10632); experiment: Inhibition of human CYP2C8 preincubated for 5 mins followed by NADPH addition measured after 5 to 30 mins by LC-MS analysis; format: ADME
T1 sequence (P10632 whole entry): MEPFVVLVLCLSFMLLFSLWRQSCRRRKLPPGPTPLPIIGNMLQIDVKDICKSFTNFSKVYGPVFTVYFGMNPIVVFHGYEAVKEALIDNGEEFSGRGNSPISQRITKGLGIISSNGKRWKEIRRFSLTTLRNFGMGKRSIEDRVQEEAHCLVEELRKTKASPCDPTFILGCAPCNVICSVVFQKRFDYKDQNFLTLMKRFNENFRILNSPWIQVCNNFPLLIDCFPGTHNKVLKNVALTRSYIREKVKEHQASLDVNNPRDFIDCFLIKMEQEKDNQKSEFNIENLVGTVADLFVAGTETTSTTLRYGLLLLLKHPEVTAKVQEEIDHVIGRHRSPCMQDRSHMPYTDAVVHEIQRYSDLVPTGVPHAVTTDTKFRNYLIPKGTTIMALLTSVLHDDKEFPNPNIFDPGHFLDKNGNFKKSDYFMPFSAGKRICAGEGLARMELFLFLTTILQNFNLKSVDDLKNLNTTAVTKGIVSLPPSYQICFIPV

[9] = Clearance in 8 hrs fasted cynomolgus monkey at 1 mg/kg, iv measured upto 24 hrs by LC-MS/MS analysis; format: ADME, organism-based, Macaca fascicularis; conditions: in vivo
[10] = Elimination half life in Sprague-Dawley rat at 2.5 mg/kg, iv measured after 24 hrs by LC-MS/MS analysis; format: ADME, organism-based; conditions: in vivo, read-out: beta t1/2 (converted)
[11] = molecular target: T2, Cytochrome P450 1A2 (Homo sapiens, UniProt P05177); experiment: Inhibition of human CYP1A2 preincubated for 5 mins followed by NADPH addition measured after 5 to 30 mins by LC-MS analysis; format: ADME
T2 sequence (P05177 whole entry): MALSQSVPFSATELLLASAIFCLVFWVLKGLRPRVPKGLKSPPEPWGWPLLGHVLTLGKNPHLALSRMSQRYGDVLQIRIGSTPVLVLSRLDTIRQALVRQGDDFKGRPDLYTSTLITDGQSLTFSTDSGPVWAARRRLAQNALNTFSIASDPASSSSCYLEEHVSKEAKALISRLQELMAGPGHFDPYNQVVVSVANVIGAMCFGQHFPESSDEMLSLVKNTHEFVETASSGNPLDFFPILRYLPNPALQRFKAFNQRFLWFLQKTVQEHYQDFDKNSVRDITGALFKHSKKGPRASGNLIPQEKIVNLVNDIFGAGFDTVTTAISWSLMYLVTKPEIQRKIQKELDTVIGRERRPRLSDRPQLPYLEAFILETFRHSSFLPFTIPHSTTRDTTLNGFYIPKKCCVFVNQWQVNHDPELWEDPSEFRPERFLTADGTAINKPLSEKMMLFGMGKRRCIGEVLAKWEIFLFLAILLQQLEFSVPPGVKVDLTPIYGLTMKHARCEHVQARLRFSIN

[12] = AUC in overnight fasted Beagle dog at 2.37 mg/kg, po measured upto 24 hrs by LC-MS/MS analysis; format: ADME, organism-based, Canis lupus familiaris; conditions: in vivo
[13] = Thermodynamic solubility of the compound in aqueous buffer at pH 7.4 measured after 24 hrs by UPLC analysis; format: physicochemical; conditions: read-out: Therm_solubility
[14] = Volume of distribution at steady state in CD-1 mouse at 2.5 mg/kg, iv measured upto 24 hrs by LC-MS/MS analysis; format: ADME, organism-based; conditions: in vivo, read-out: Vdss
[15] = tested on: mouse P-gp; experiment: Apparent permeability across apical to basolateral side in pig LLC-PK1 cells transfected with mouse P-gp at 1 uM measured upto 120 mins; format: ADME, cell-based, Sus scrofa
[16] = AUC in 8 hrs fasted cynomolgus monkey assessed as liver blood flow at 3 mg/kg, po measured upto 24 hrs by LC-MS/MS analysis; format: ADME, organism-based, Macaca fascicularis; conditions: in vivo
[17] = molecular target: Voltage-gated inwardly rectifying potassium channel KCNH2 (Homo sapiens, UniProt Q12809); experiment: Inhibition of human ERG stably expressed in CHO cells by automated Qpatch electrophysiological assay; format: toxicity, cell-based
Chain of Voltage-gated inwardly rectifying potassium channel KCNH2 (Q12809 whole entry): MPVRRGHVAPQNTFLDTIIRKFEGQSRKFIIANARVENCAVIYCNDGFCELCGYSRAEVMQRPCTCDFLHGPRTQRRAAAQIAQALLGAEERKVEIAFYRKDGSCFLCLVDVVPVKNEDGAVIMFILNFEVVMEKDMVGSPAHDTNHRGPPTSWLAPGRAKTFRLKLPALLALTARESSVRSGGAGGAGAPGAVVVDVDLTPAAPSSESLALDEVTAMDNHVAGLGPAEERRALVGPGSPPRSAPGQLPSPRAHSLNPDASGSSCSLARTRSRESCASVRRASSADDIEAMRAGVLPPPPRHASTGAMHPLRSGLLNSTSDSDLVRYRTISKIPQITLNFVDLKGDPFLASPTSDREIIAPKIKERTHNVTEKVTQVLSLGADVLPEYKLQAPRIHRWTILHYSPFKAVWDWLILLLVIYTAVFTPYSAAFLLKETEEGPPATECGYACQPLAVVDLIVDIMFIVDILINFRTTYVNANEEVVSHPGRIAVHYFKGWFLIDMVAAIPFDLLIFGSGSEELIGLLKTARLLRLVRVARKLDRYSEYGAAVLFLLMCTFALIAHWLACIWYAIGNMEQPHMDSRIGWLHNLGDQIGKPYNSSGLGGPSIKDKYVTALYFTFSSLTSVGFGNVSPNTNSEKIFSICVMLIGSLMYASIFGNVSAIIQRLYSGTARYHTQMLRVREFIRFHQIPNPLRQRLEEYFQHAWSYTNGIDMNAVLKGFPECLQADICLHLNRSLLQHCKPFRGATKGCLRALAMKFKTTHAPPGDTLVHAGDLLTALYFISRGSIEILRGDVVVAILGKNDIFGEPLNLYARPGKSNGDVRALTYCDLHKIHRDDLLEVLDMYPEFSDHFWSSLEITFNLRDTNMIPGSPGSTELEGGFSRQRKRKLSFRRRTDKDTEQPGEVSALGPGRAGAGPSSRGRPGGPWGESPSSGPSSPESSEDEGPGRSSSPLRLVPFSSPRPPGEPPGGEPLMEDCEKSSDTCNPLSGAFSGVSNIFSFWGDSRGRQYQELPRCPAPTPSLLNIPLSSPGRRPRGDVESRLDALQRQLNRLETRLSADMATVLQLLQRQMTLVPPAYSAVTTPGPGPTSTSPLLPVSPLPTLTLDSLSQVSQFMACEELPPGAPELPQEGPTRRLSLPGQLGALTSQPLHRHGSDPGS

[18] = tested on: dengue virus type 4; experiment: Antiviral activity against DENV-4 H241 infected in african green monkey Vero cells incubated for 24 hrs measured after 3 days post infection by RT-PCR analysis; format: functional, organism-based
[19] = Metabolic stability in dog hepatocytes assessed as intrinsic clearance measured per million cells incubated upto 120 mins by LC-MS/MS analysis; format: ADME, cell-based, Canis lupus familiaris, Hepatocyte; conditions: read-out: CLH
[20] = molecular target: Cytochrome P450 3A4 (Homo sapiens, UniProt P08684); experiment: Inhibition of human CYP3A4 preincubated for 5 mins followed by NADPH addition measured after 5 to 30 mins by LC-MS analysis; format: ADME; conditions: time 10-35 min
Chain of Cytochrome P450 3A4 (P08684 whole entry): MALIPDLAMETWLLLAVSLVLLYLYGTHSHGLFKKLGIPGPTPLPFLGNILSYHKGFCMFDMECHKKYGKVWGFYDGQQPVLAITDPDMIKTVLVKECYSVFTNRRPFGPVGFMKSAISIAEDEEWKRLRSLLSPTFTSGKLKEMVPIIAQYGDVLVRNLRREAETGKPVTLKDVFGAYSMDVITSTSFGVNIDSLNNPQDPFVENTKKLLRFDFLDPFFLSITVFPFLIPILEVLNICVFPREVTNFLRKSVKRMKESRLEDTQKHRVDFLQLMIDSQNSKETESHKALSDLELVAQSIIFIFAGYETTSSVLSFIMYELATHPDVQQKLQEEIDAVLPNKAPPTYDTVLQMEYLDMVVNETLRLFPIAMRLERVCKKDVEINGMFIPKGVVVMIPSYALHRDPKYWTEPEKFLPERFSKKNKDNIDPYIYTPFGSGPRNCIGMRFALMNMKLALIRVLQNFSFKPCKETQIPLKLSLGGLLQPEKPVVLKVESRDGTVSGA

[21] = tested on: dengue virus type 1; experiment: Antiviral activity against DENV-1 TC974#666 infected in african green monkey Vero cells incubated for 24 hrs measured after 3 days post infection by RT-PCR analysis; format: functional, organism-based; conditions: Dengue virus, TC974#666, Vero; read-out: EC50
[22] = Oral bioavailability in CD-1 mouse at 10 mg/kg measured upto 24 hrs by LC-MS/MS analysis; format: ADME, organism-based; conditions: in vivo
[23] = AUC in Sprague-Dawley rat at 10 mg/kg, po measured after 24 to 48 hrs by LC-MS/MS analysis; format: ADME, organism-based; conditions: in vivo, time 24-48 hrs
[24] = Plasma protein binding in human at 5 uM measured after 24 hrs by LC-MS/MS analysis; format: ADME, cell-free; conditions: read-out: PPB (converted)
[25] = Clearance in CD-1 mouse at 2.5 mg/kg, iv measured upto 24 hrs by LC-MS/MS analysis; format: ADME, organism-based; conditions: in vivo
[26] = Mutagenicity in Salmonella typhimurium TA7003 in presence or absence of S9 fraction pretreated for 90 mins measured after 48 hrs in dark by AMES test; format: toxicity; conditions: salmonella enterica subsp. enterica serovar typhimurium, s9, 49.5 h; time 2970 min
[27] = tested on: dengue virus type 2; experiment: Antiviral activity against DENV-2 16681 expressing eGFP infected in african green monkey Vero cells incubated with cells for 24 hrs followed by viral infection measured after 3 days by laser microscopic analysis; format: functional, organism-based; conditions: Dengue virus, 16681, Vero

efflux ratio at 2 h, 1 µM [1]: ~4
hepatocyte CLint [3]: < 1.9 µL/min/1e6 cells
hepatocyte CLint [4]: < 1.9 µL/min/1e6 cells
Vd [5]: 1.64 L/kg
half-life [6]: 6.2 h
LBF [7]: 5%
IC50 [8]: 7400 nM
clearance [9]: 0.147 L/h/kg
half-life [10]: 12.4 h
IC50 [11]: > 30000 nM
AUC at 24 h [12]: 2.94 µg·h/mL
solubility thermodynamic at 24 h [13]: < 1 µg/mL
Vd [14]: 2.5 L/kg
Papp A→B at 2 h, 1 µM [15]: 10 nm/s
AUC at 24 h [16]: 8.97 µg·h/mL
EC50 [18]: 11 nM
hepatocyte CLint [19]: 5.7 µL/min/1e6 cells
inhibition (INH) [20]: Not Active
EC50 [21]: 0.2 nM
bioavailability [22]: 108%
AUC [23]: 15.4 µg·h/mL
fraction unbound at 24 h, 5 µM [24]: 0.0014
clearance [25]: 0.298 L/h/kg
EC50 [27]: 0.057 nM
SMILES: COc1cc(N[C@H](C(=O)c2c[nH]c3ccc(OC(F)(F)F)cc23)c2ccc(Cl)cc2OC)cc(S(C)(=O)=O)c1 [MOSNODENVIR]
Activity [2]: Non-Toxic
IC50 [17]: > 30000 nM
Activity [26]: Non-Toxic
